Laboratory results reported in a melting point compilation (Tetko et al.; mined from patent text by program, amines drawn as free bases though some values may be those of a salt).

| SMILES | melting point [°C] |
| --- | --- |
| CC(C)(C)C1CCC(OO)(OO)CC1 | 83 to 84 |
| O=[N+]([O-])CCN1CCC(n2ccc(-c3ccc(F)cc3)c2-c2ccncc2)CC1 | 172 to 173 |
| CCOC(=O)c1nc(C2CC2)nc(N)c1C | 130 to 132 |
| COC(=O)C1=C(C(=O)OC)C2OC1c1cc3c(cc12)OCO3 | 117 to 119 |
| O=C1NCc2ccc3ccccc3c21 | 138 to 141 |
| CC1(C)CCC(C)(C)c2cc(-c3cc(-c4ccc(C(=O)O)cc4)ccc3-c3ccccc3)c(O)cc21 | 145 |
| CC(C)[C@H](NC(=O)N(C)Cc1ccccn1)C(=O)N[C@@H](Cc1ccccc1)[C@@H](O)C[C@H](Cc1ccccc1)NC(=O)OCc1cccnc1 | 69 to 71 |
| CCCCC(NC(=O)C(CC(C)C)NC(=O)c1cccc2ccccc12)C(=O)CSCc1ccco1 (configuration not stated) | 81 to 83 |
| CN1CCc2ccc(C(=O)CCC(=O)N3CCC(c4ccc(Cl)cc4)CC3)cc2C1 | 139 to 140 |
| CCC1(c2ccncc2)CCC(=O)NC1=O (configuration not stated) | 134 to 136 |
| CCCc1c[nH]c(CCC(=O)N(C)C)c1 | 71 to 72 |
| CCCCN1C(=O)NC(Cc2ccc(C)s2)C1=O (configuration not stated) | 107 |
| CCCc1c2c(nn1-c1ccccc1)c(=O)[nH]c1ccccc12 | > 300 |
| C=C1SC(=S)N(c2cccc3c(-c4ccc(OC)c(C56CC7CC(CC(C7)C5)C6)c4)cccc23)C1=O | 322 to 324 |
| Nc1ccc(N2CCN(Cc3ccccc3)CC2)cc1C(=O)O | 242 |
| COCCc1nc2c(N)nc3ccccc3c2n1CC1(O)CCCCC1 | 189 to 191 |
| O=C1c2c(-c3ccccc3)cc(CNC3CC3)nc2OCCN1Cc1cc(C(F)(F)F)cc(C(F)(F)F)c1 | 129 to 131 |
| O=C(O)c1c2c(nc3ccccc13)-c1cc3sc4ccccc4c3cc1CC2 | 190 to 193 |
| Cn1cc(CCl)c(-c2ccc(Cl)cc2C(=O)c2ccccc2F)n1 | 153 to 155 |

| SMILES | melting point [°C] |
| --- | --- |
| Cc1nc(N2CCN(Cc3ccc(C(F)(F)F)cc3)C2=O)sc1C(=O)NCc1cccnc1 | 107 to 108 |
| S=C(Nc1ccc(Br)cn1)N[C@@H]1C[C@@H]1c1ccccc1 | 192 to 193 |
| CC(C)C1=CC2=CCC3C(C)(C(=O)N(C)C4CCCCC4)CCCC3(C)C2CC1 (configuration not stated) | 130 to 132 |
| CCCCC(N=O)C(C)(C)Cl (configuration not stated) | 84 to 85 |
| CC(C)(C)OC(=O)N[C@H](CCCNC(N)=N[N+](=O)[O-])C(=O)NCc1ccc(CNC(N)=O)cc1 | 172 |
| CCCCN(CCCC)CCCOc1ccc(S(=O)(=O)c2c(C3CCCCC3)cn3ccccc23)cc1 | 130 to 131 |
| CCCN(CCC)C(=O)Cc1c(-c2ccccc2)nn2cccnc12 | 103 to 105 |
| O=c1oc(-c2ccc(Cl)cc2)cc(O)c1SCCc1ccccc1 | 161 to 163 |
| Cc1ccn(NS(=O)n2ccnc2)c(=N)c1 (configuration not stated) | 176 to 177 |
| CC(=O)Oc1ccc(CC(CC(=O)O)N2C(=O)c3ccccc3C2=O)cc1 (configuration not stated) | 151 to 154 |
| [N-]=[N+]=C1C(=O)Nc2ccc(F)cc21 | 209 to 210 |
| COc1cc2ncnc(N3CCN(C(=S)NCc4ccc(Br)cc4)CC3)c2cc1OC | 217 to 218 |
| CC1=NN(C(=O)NS(=O)(=O)c2ncccc2C(F)(F)F)C(c2ccccc2)C1 (configuration not stated) | 185 to 187 |
| COc1ccc2nc(NC(=O)C(CC3CCCC3)c3ccc(S(=O)(=O)CCc4ccccc4)cc3)sc2n1 (configuration not stated) | 169 to 172 |
| CCn1cc(C(=O)O)c(=O)c2cc(F)c(N3CCN(S(=O)(=O)c4ccc(N)cc4)CC3)cc21 | 283 to 284 |
| CN1CCC(c2nc(-c3ccccc3)c3ccccc3n2)CC1 | 83 to 86 |
| O=C(O)/C=C/c1c(C2CC2)nc2ccccc2c1-c1ccc(F)cc1 | 173 to 174 |
| CCCCCCCCCCCCCCCCCCNC(=O)C(=O)Nc1ccc(O)cc1 | 192 |
| Cc1nn(C)c(C)c1S(=O)(=O)N1CCC2(CC1)CSC1=C(O2)c2ccccc2C(=O)C1=O | 273 to 275 |

| SMILES | melting point [°C] |
| --- | --- |
| O=[N+]([O-])c1ccc(OS(=O)(=O)C(F)(F)F)c2oc3ccccc3c12 | 102 to 103 |
| Cn1cc(CN2C(=O)C3(COc4cc5c(cc43)OCCO5)c3ccccc32)ccc1=O (configuration not stated) | 205 to 207 |
| Cc1oc(-c2ccco2)nc1COc1ccc(CO)cc1 | 91 to 92 |
| O=C(O)c1ccc(S(=O)(=O)C(Br)(Br)Br)cc1 | > 305 |
| FC(F)(F)c1cccc(-c2nnc(Cl)cc2Cl)c1 | 80 to 81.5 |
| CCCCCCS(=O)(=O)c1ccc(S(=O)(=O)CCCCCC)nc1 | 135 to 136 |
| O=c1c2c(Cc3ccc([N+](=O)[O-])cc3)n[nH]c2c2cccnc2n1-c1ccccc1 | 254 to 255 |
| CC=CCn1c(C)c(CC)c2cnnc(OCc3ccc(F)cc3)c21 | 78 to 83 |
| COCC1CN(c2cc3c(cc2F)c(=O)c(C(=O)O)cn3C2CC2)CCN1 (configuration not stated) | 215 to 216 |
| Cc1oc(-c2ccccc2)nc1COc1ccccc1CCCC1SC(=O)NC1=O (configuration not stated) | 173 to 174 |
| CC(C)Nc1n[nH]c2nc(Oc3ccc(F)cc3F)ncc12 | 211 to 214 |
| NC(=O)c1ncn(CCCc2ccc(OCc3coc(/C=C/c4ccccc4)n3)cc2)c1C(N)=O | 194 to 195 |
| Cc1ccc(C2NCCS2)cc1 (configuration not stated) | 92 to 93 |
| CCCCCCC/C=C\CCCCCCCC(O)CCCNC(C)=O (configuration not stated) | 50 to 52 |
| Cc1c(CN(C)CCc2ccc(NS(C)(=O)=O)cc2)oc2ccc([N+](=O)[O-])cc12 | 124 |
| Cc1cc(OCCN2CCOCC2)nn1-c1ccc2ccc(O)cc2c1 | 103 to 107 |
| CCCCC(C(=O)OCC)(C(=O)OCC)c1nc(C)nc2c1c(SC)nn2-c1c(Cl)cc(Cl)cc1Cl | 148 to 150 |
| O=C(O)c1ccc2n1Cc1ccccc1N(C(=O)COc1ccc(Cl)cc1)C2 | 168 |

The next lines start with the values.

| melting point [°C] | SMILES |
| --- | --- |
| 173 to 174 | O=C(O)Cc1ccc2noc(-c3ccccc3)c2c1 |
| 58 to 59 | CCCn1nc(-c2ccc(OC(=O)CC(C)(C)C)c(F)c2)c2cccc(Cl)c21 |
| 99 | CCOC(=O)N=C(N)c1ccc(OCc2cccc(COc3ccc(C(C)(C)c4ccccc4)cc3)c2)cc1 |
| 133 to 134 | CC(=O)Nc1ccc2c(c1)COCO2 |
| 126 | CCOC(=O)C1=C(C)Nc2nc(N)nc(N)c2C1c1cc(OC)c(OC)c(OC)c1 (configuration not stated) |
| 175 to 176 | Cc1c[nH]c(=O)c2ccccc12 |
| 238 to 242 | O=C(O)CN1C(=O)C(=Cc2ccccc2Cl)SC1=S |
| 131 | CNC(=O)c1cccc(NC(=O)CCc2ccccc2C)c1 |
| 111 to 112 | COc1ccc(-c2cc(C(C)(O)C(F)(F)F)[nH]c2-c2ccc(OC)cc2)cc1 (configuration not stated) |
| 205 to 207 | NC(=O)c1cccc2nccc(O)c12 |
| 106 | COP(=O)(Cc1cc(CP(=O)(OC)OC)cc(CP(=O)(OC)OC)c1)OC |
| 204 to 205 | COC(=O)c1ccccc1S(=O)(=O)NC(=O)Nc1nc(Cl)c(C)c(OC)n1 |
| 78.5 to 81 | COc1ccc(-c2cccc(OCc3ccccc3)c2)cc1 |
| 160 to 161 | Cc1ccc(-c2nc(C(=O)O)c(C)s2)s1 |
| 168 to 169 | Cn1c(CNCC(C)(C)S(C)(=O)=O)cc2cc(NC(=O)c3ccc(OCC4CC4)cc3)ccc21 |
| 205 to 206 | Cc1cccc(Nc2ncnc3ccc(N)cc23)c1 |
| 103 to 104 | CCc1cccc2c3c([nH]c12)C(CC)(CC(C)O)OCC3 (configuration not stated) |
| 51 to 52 | C=COCCOc1ccc(Oc2ccccc2)cc1 |
| 98 to 99 | Cc1ccc(-c2ccccc2C(=O)NN)cc1 |
| 130 | COC(=O)C(N)(CF)Cc1ccc(O)cc1 (configuration not stated) |
| 47 to 48 | CCOC(=O)CCc1cn(-c2ccc(C(F)(F)F)cc2)nc1OCC |
| 103 to 104 | O=[N+]([O-])c1c(NCCO)cccc1NCCO |
| 180 | Cc1ncc(COC(=O)c2ccncc2)cc1O |

| melting point [°C] | SMILES |
| --- | --- |
| 138 to 139 | CNC(=O)C1=CC(CF)(CF)Oc2ccccc21 |
| 160 to 163 | O=C(Nc1ccc(C(CC2CCCC2)C(=O)O)cc1)c1cccnc1 (configuration not stated) |
| 159 | CCCCCCCCC(Cc1cccnc1)(C(=O)O)S(=O)(=O)c1ccc(OC)cc1 (configuration not stated) |
| 190 to 193 | CCOC(=O)c1cnc2c3ccccc3c(OC)cn2c1=O |
| 110 to 125 | CCC12CCC3=C(CCc4cc(OC)ccc43)C1CCC2=O (configuration not stated) |
| 31 to 33 | O=C(CBr)C1=NO[C@@H](c2ccccc2)C1 |
| 219 | COc1ccc2cc(-c3ccc(-n4nc(C)nc4C)c(Cl)c3)c(=O)oc2c1 |
| 180 to 184 | COC(=O)c1cc(-n2cnnc2)c(C(F)(F)F)cc1NC(C)=O |
| 100 to 101 | COCc1ccc(Oc2cc(OC(C)C)c3[nH]c(C4=NCC(CC(=O)NC5CC5)S4)cc3c2)cn1 (configuration not stated) |
| 147 to 148 | C/C(=C\c1ccc(OC(C)C)cc1Oc1ncc(C(F)(F)F)cc1Cl)C(=O)NS(=O)(=O)NCCc1ccccc1 |
| 139 to 140 | CCCC(Oc1cc(OC)ccc1C(=O)c1ccc(OCc2nc(-c3ccccc3)oc2C)cc1)C(=O)O (configuration not stated) |
| 213 to 215 | CC1CCc2c(cc(-c3ccccc3)n2-c2ccc(O)c(C(=O)O)c2)C1 (configuration not stated) |
| 170 to 171 | CC(C)(C)OC(=O)N1CCC(NC(=O)c2ccc(-n3cccn3)cc2)CC1 |
| 155 to 159 | CCOC(=O)c1cc(=O)c2c(OCC(O)COc3cccc4occc(=O)c34)cccc2o1 (configuration not stated) |
| 93 | Cc1cc(Br)c(C=O)c2ccccc12 |
| 82 | CC(C)OC(=Cn1cnnn1)c1ccc(Cl)cc1Cl |
| 148 to 150 | CSC1NC(=O)N(Cc2ccccc2)C(=O)N1N=C(C)C (configuration not stated) |
| 60 to 61 | COC(=O)CCCCCc1nn(-c2ccc([N+](=O)[O-])cc2)c2c1CCCC2 |
| 126 | COc1ccc(OC)c2c1CC(O)CC2O (configuration not stated) |
| 80 to 83 | O=S(=O)(Oc1ccc(Cl)c2cccnc12)C(F)(F)F |
| 228 to 230 | Cc1ccc(-c2cc(C(N)=O)c(N)s2)cc1 |
| > 340 | NNC(=O)c1ncc2[nH]c3ccccc3c2n1 |
| 66 to 68 | CON=C(C(=O)OC)c1cccc(OC)c1 |
